According to PMC11867108, “Design and application of a fluorescent probe for imaging of endogenous Bruton's tyrosine kinase with preserved enzymatic activity” (RSC Chemical Biology, 2025):

Tests used:
[1] = target: T1, Bruton's tyrosine kinase (BTK) (Homo sapiens, UniProt Q06187); test: in-gel fluorescence under denaturing conditions (covalent labelling); ADP-Glo IC50; format: biochemical
T1 construct: full-length recombinant BTK

[2] = target: T1, Bruton's tyrosine kinase (BTK); test: LC-MS/MS of tryptic peptide […]-487 and in-gel fluorescence; ADP-Glo IC50; immunoprecipitation from Ramos cells; format: biochemical

T1 sequence (Q06187 2-659): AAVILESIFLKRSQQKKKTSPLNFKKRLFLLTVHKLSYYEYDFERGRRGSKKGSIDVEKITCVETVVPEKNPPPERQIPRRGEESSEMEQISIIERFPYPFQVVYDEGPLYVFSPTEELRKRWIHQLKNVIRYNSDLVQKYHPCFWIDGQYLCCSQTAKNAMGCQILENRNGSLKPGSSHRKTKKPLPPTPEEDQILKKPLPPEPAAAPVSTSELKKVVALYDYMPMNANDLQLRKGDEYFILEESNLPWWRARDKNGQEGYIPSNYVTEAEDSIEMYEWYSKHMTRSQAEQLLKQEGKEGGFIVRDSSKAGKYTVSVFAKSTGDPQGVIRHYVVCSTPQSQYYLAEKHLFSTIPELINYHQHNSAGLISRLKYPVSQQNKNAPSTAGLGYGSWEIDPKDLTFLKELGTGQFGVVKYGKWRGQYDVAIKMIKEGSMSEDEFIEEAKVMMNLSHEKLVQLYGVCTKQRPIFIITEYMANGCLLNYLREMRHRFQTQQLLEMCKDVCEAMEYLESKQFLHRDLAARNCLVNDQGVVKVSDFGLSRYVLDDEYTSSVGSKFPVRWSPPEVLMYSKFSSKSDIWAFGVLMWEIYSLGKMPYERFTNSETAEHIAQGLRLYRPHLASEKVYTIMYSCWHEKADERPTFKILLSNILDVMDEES

C=C(CN1CCC(CNc2ncnc(N)c2-c2ccc(Oc3ccccc3)cc2)CC1)C(=O)NCCNC(=O)CCC1=[N+]2C(=Cc3c(C)cc(C)n3[B-]2(F)F)C=C1 [Evo-1]
IC50 [1]: 7.61 µM

C=C(CN1CCC(CNc2ncnc(N)c2-c2ccc(Oc3ccccc3)cc2)CC1)C(=O)N1CCC(NC(=O)CCC2=[N+]3C(=Cc4c(C)cc(C)n4[B-]3(F)F)C=C2)CC1 [Evo-2]
IC50 [2]: > 10 µM
